# Patent US5968791A, “Plant lysophosphatidic acid acyltransferases” (Calgene, Inc., priority 1995, dated 1999)
# Molecular target: T1, coconut medium-chain LPAAT (Cocos nucifera, UniProt Q42670)
# T1 construct: The frozen coconut P2 preparation is thawed and diluted in a volume of P2 Buffer; from tissue; host or cells: immature coconut endosperm, solubilized S3 supernatant of P2 membranes
# T1 sequence (Q42670 1-308): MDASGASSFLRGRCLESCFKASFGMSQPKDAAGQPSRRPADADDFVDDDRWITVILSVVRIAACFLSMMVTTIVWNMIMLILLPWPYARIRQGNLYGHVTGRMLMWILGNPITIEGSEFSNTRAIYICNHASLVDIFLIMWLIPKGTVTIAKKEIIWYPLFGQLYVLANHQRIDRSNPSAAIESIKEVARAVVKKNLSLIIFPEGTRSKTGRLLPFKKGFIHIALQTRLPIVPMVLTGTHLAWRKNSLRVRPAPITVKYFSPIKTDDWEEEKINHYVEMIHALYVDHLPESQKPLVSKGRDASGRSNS
# Assay: Assay of solubilized coconut LPAAT (S3 preparation) with phospholipid activation
# Type: biochemical
# Conditions: radioactivity of PA product resolved on TLC, after 30 min assay; S3 reactivated with PLs; acceptor 12:0-LPA
# Experimental: After solubilization of LPAAT protein from plant membranes as described below, modification of the above assay conditions is required in order to detect maximum LPAAT activity. This is especially important after the solubilized LPAAT has been chromatographed on at least one column. The important modification to the assay is the addition, at the start of the assay procedure, of 1 μl of a concentrated phospholipid (PL) solution to 20 μl of the LPAAT-containing sample in a glass vial. The high concentrations of CHAPS (at least 1% w/v) and NaCl (typically 0.5M or greater) in the solubilized LPAAT preparation aid in dispersal of the phospholipids. The phospholipid solution is obtained by sonicating crude soybean phospholipids (L-phosphatidylcholine from soybean, "Type IVs" obtained from Sigma Chemical Company, St. Louis) at 50 mg/ml in 0.5% (w/v) CHAPS (3-[(3-cholamidopropyl) -dimethylammonio]-1-propane-sulfonate) until a uniform suspension is obtained.
# The remaining assay ingredients (as described above), with the exception of the acyl-CoA substrate, are then added as 219 μl of a mixture. […] Radiolabeled acyl-CoA (10 μl, or an appropriately adjusted volume as indicated above) is added to start the LPAAT-catalyzed reaction and the rest of the assay procedure is completed as described above.
# All steps are carried out at 0-4° C. The frozen coconut P2 preparation is thawed and diluted in a volume of P2 Buffer to achieve a protein concentration of 0.94 mg/ml P2 protein. Protein concentration is determined by Coomassie dye staining relative to a bovine serum albumin standard. The P2 membrane suspension is then diluted with an equal volume of Solubilization Buffer (50 mM HEPES-NaOH, pH 7.5, […], 20% (w/v) glycerol, 4.5% (w/v) CHAPS, 100 μM Pefabloc, 1 μM leupeptin, 1 μM Pepstatin A, and 5 mM β-ME), resulting in final concentrations of 1M NaCl, 2.25% (w/v) detergent, and 0.47 mg/ml protein. These component concentrations, and the resulting detergent/protein ratio of 48/1 (w/w), are important for optimal solubilization. The preparation is then incubated on ice for 30 minutes with occasional, gentle stirring, followed by centrifugation at 252,000×g for 2 hours. The resulting supernatant fraction (S3) is filtered through buffer-wetted Miracloth, and may then be stored frozen (-70) with only slight loss of activity. Optimally, it is applied to chromatography columns without an intervening freeze-thaw cycle.
# Assay of the coconut medium-chain LPAAT activity after solubilization (S3 preparation) and reactivation with PLs, using different acyl-CoA substrates, provides the following results (Table 3). In all these assays the acceptor substrate is 12:0-LPA.
row,Structure (SMILES),"LPAAT Activity, solubilized coconut LPAAT [cpm]"
1,CCCCCCCC(=O)SCCNC(=O)CCNC(=O)[C@H](O)C(C)(C)COP(=O)(O)OP(=O)(O)OC[C@H]1O[C@@H](n2cnc3c(N)ncnc32)[C@H](O)[C@@H]1OP(=O)(O)O [8:0],16
2,CCCCCCCCCC(=O)SCCNC(=O)CCNC(=O)[C@H](O)C(C)(C)COP(=O)(O)OP(=O)(O)OC[C@H]1O[C@@H](n2cnc3c(N)ncnc32)[C@H](O)[C@@H]1OP(=O)(O)O [10:0],162
3,CCCCCCCCCCCCCC(=O)SCCNC(=O)CCNC(=O)[C@H](O)C(C)(C)COP(=O)(O)OP(=O)(O)OC[C@H]1O[C@@H](n2cnc3c(N)ncnc32)[C@H](O)[C@@H]1OP(=O)(O)O [14:0],84
4,CCCCCCCCCCCCCCCC(=O)SCCNC(=O)CCNC(=O)[C@H](O)C(C)(C)COP(=O)(O)OP(=O)(O)OC[C@H]1O[C@@H](n2cnc3c(N)ncnc32)[C@H](O)[C@@H]1OP(=O)(O)O [16:0],18
5,"CCCCCCCC/C=C\CCCCCCCC(=O)SCCNC(=O)CCNC(=O)[C@H](O)C(C)(C)COP(=O)(O)OP(=O)(O)OC[C@H]1O[C@@H](n2cnc3c(N)ncnc32)[C@H](O)[C@@H]1OP(=O)(O)O [18:1, oleoyl-CoA]",30
6,"CCCCCCCCCCCC(=O)SCCNC(=O)CCNC(=O)[C@H](O)C(C)(C)COP(=O)(O)OP(=O)(O)OC[C@H]1O[C@@H](n2cnc3c(N)ncnc32)[C@H](O)[C@@H]1OP(=O)(O)O [12:0, lauroyl-CoA]",205
